The values below come from patent US20250388573A1, “FUSED BICYCLIC EGFR INHIBITORS AND METHODS OF USE THEREOF” (Dana-Farber Cancer Institute, Inc., priority 2022, published 2025).

Bounds are passed on as bounds.

In one experiment the target is EGFR L858R/T790M (Homo sapiens (Human), UniProt P00533, L858R/T790M). The experiment is described as follows: HTRF-based EGFR biochemical assay, L858R/T790M. The following applies: L858R/T790M 0.02 nM enzyme, 100 μM ATP; read-out: LRTM enzyme IC50. On the procedure:
(§1) EGFR biochemical activity measurements were carried out using the homogeneous time-resolved fluorescence (HTRF) assay (Cisbio). Inhibitors and DMSO normalizations were first dispensed to empty black low-volume 384-well plates (Corning) with D300 digital liquid dispenser (HP). All reactions were carried out at room temperature and solutions were added to plates with a Multidrop Combi Reagent Dispenser (ThermoFisher). The reaction mixture (10 µL final volume) contained 1 μM tyrosine kinase peptide-biotin substrate and mutant EGFR in a reaction buffer (50 mM HEPES pH 7.0, 5 mM MgCl2, 1 mM MnCl2, 0.01% BSA, 2 mM TCEP, 0.1 mM NaVO4). Enzyme concentrations were adjusted to accommodate varying kinase activities (L858R 0.1 nM, L858R/T790M 0.02 nM). Enzyme reaction solution (2× concentrations, 5 μL) was added to 384-well plates containing compounds and incubated for 30 mins. Enzyme reactions were initiated with the addition of 5 μL of ATP to a final concentration of 100 μM and reacted for 20 mins. Reactions were quenched with the addition of 10 μL of phospho-tyrosine antibody-Europium (III) cryptate (1-to-180 volume ratio) and Streptavidin-XL665 (46.7 nM) in EDTA-containing detection buffer, then incubated at room temperature for 1 hour, and read with a PHERAstar plate reader (excitation=337 nm, emission=620 nm and 665 nm). IC50 values were determined by inhibition curves (11-point curves from 1.0 μM to 0.130 nM or 23-point curves from 1.0 μM to 0.130 μM) in triplicate with non-linear least squares fit in GraphPad Prism 7.0d.

A further experiment deals with EGFR L858R (Homo sapiens (Human), UniProt P00533, L858R). The experiment is described as follows: HTRF-based EGFR biochemical assay, L858R. Conditions: L858R 0.1 nM enzyme, 100 μM ATP; read-out: LR enzyme IC50. On the procedure: as §1
EGFR L858R, sequence (P00533 25-1210 L858R): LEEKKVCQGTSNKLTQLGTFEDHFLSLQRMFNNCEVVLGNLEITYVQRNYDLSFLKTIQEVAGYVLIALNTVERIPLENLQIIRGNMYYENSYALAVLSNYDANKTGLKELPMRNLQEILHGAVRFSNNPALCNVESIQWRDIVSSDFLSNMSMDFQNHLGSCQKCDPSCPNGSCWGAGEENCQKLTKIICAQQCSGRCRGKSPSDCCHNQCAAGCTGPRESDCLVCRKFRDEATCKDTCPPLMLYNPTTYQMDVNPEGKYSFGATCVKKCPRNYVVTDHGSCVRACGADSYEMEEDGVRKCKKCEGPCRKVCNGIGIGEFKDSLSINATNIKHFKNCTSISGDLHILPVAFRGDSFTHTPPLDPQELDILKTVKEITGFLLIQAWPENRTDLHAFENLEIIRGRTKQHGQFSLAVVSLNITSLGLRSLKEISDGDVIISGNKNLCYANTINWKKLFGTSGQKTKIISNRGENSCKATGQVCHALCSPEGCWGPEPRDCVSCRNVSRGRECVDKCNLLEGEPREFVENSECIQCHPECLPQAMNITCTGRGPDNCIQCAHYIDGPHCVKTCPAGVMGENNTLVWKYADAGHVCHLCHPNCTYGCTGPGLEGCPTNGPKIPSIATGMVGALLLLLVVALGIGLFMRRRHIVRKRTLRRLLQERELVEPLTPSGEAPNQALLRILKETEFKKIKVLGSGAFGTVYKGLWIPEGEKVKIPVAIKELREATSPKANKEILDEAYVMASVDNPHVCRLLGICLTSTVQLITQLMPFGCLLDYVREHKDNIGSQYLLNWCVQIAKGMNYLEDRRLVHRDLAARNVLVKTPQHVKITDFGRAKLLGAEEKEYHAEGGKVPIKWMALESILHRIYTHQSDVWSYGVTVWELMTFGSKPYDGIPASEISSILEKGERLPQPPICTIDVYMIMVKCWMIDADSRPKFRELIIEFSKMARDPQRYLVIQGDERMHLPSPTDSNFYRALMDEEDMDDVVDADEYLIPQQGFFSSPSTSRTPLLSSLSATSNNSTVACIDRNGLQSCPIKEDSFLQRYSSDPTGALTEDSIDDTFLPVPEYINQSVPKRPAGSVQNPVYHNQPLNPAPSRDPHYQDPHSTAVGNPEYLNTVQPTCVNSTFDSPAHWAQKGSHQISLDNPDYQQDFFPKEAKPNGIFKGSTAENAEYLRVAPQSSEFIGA
Experiment [1] concerns EGFR mutant L858R/T790M Ba/F3 cells. The experiment is described as follows: Ba/F3 cell proliferation (Cell Titer Glo), L858R/T790M. It is filed as cell-based, murine. The following applies: Mus musculus, BaF3, 72 hours, read-out: LRTM BaF3 cell IC50. The text has this: (§2) The EGFR mutant L858R and L858R/T790M Ba/F3 cells have been previously described (Zhou, W., et al. Nature 462, 2009, 1070-1074). All cell lines were maintained in RPMI 1640 (Cellgro; Mediatech Inc., Herndon, CA) supplemented with 10% FBS, 100 units/mL penicillin, 100 units/mL streptomycin. The EGFR 1941R mutation was introduced via site directed mutagenesis using the Quick Change Site-Directed Mutagenesis kit (Stratagene; La Jolla, CA) according to the manufacturer's instructions. All constructs were confirmed by DNA sequencing. The constructs were shuttled into the retroviral vector JP1540 using the Cre-recombination system (Agilent Technologies, Santa Clara, CA). Ba/F3 cells were then infected with retrovirus per standard protocols, as described previously (Zhou, et al, Nature 2009). Stable clones were obtained by selection in puromycin (2 μg/ml).
(§3) Growth and inhibition of growth was assessed by the Cell Titer Glo assay (Promega, Madison, WI) and was performed according to the manufacturer's instructions. The Cell Titer Glo assay is a luminescence-based method used to determine the number of viable cells based on quantitation of the ATP present, which is directly proportional to the amount of metabolically active cells present. Ba/F3 cells of different EGFR genotypes were exposed to the compounds disclosed herein for 72 hours and the number of cells used per experiment was determined empirically as has been previously established (Zhou, et al., Nature 2009). All experimental points were set up in triplicates in 384-well plates and all experiments were repeated at least three times. […] The curves were fitted using a non-linear regression model with a sigmoidal dose response.

Experiment [2] concerns EGFR mutant L858R Ba/F3 cells. As to the kind of experiment: Ba/F3 cell proliferation (Cell Titer Glo), L858R. It counts as cell-based, murine. Conditions: Mus musculus, BaF3, 72 hours, read-out: LR BaF3 cell IC50.
Description: as §2, §3

EGFR L858R/T790M, sequence (P00533 25-1210 T790M/L858R): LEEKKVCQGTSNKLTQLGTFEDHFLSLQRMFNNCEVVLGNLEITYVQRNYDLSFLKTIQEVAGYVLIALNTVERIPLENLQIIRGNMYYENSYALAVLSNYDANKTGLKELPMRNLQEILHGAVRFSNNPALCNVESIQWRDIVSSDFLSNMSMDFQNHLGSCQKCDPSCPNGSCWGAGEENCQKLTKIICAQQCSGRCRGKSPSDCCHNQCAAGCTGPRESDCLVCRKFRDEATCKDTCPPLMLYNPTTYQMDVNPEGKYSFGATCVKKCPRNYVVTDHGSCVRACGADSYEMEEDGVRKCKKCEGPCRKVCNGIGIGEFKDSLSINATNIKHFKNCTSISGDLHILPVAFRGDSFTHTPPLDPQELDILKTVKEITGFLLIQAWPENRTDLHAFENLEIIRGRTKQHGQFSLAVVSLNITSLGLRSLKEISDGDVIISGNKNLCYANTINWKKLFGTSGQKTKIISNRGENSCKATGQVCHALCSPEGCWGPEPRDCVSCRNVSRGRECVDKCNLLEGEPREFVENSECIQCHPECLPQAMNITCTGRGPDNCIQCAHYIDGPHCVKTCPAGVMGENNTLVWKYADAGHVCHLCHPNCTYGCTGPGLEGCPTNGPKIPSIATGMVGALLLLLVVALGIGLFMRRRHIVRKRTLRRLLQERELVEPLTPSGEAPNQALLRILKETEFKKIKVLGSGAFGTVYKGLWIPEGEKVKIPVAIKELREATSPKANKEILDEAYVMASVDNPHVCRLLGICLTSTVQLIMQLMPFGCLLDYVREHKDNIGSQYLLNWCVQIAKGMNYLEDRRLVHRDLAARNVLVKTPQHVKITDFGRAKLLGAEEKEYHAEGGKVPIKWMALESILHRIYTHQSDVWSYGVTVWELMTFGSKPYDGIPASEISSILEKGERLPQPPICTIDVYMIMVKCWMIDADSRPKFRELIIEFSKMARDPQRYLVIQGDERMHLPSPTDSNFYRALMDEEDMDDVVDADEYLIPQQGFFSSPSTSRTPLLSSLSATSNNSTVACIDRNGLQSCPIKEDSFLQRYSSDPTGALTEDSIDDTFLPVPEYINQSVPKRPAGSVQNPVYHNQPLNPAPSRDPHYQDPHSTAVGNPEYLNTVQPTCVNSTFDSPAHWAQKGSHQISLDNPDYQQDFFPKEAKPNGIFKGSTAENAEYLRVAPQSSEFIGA

As for `CN1CCC(c2ccc(-c3ccc4c(c3)C(=O)N(C(C(=O)Nc3nccs3)c3cccc(F)c3)CO4)cc2)CC1` (stereo not drawn) [Compound 001, 2-(3-Fluorophenyl)-2-(6-(4-(1-methylpiperidin-4-yl)phenyl)-4-oxo-2H-benzo[e][1,3]oxazin-3 (4H)-yl)-N-(thiazol-2-yl)acetamide], the half-inhibitory concentration (IC50) on EGFR L858R/T790M is 0.4 nM; on EGFR L858R, 2.8 nM; in experiment [1], 510 nM; in experiment [2] it was 1480 nM.

`CN1CCC(c2ccc(-c3ccc4c(c3)OCN(C(c3nc5ccccc5[nH]3)c3cc(F)ccc3O)C4=O)cc2)CC1` (stereo not drawn) [Compound 006, 3-((1H-Benzo[d]imidazol-2-yl) (5-fluoro-2-hydroxyphenyl)methyl)-7-(4-(1-methylpiperidin-4-yl)phenyl)-2,3-dihydro-4H-benzo[e][1,3]oxazin-4-one]: the IC50 on EGFR L858R/T790M amounted to 0.9 nM; on EGFR L858R, 3.6 nM; in experiment [1], 880 nM; in experiment [2], 1540 nM.

For `CN1CCC(c2ccc(-c3ccc4c(c3)OCN(C(C(=O)Nc3nccs3)c3ccccc3)C4=O)cc2)CC1` (stereo not drawn) [Compound 004, 2-(7-(4-(1-Methylpiperidin-4-yl)phenyl)-4-oxo-2H-benzo[e][1,3]oxazin-3(4H)-yl)-2-phenyl-N-(thiazol-2-yl)acetamide], the IC50 was 21 nM at EGFR L858R/T790M and above 100 nM on EGFR L858R.

For `CN1CCC(c2ccc(-c3ccc4c(c3)C(=O)N(C(c3nc5ccccc5[nH]3)c3cc(F)ccc3O)CO4)cc2)CC1` (stereo not drawn) [Compound 007, 3-((1H-Benzo[d]imidazol-2-yl) (5-fluoro-2-hydroxyphenyl)methyl)-6-(4-(1-methylpiperidin-4-yl)phenyl)-2,3-dihydro-4H-benzo[e][1,3]oxazin-4-one 2,2,2-trifluoroacetate], the half-inhibitory concentration (IC50) on EGFR L858R/T790M came out at 0.7 nM; at EGFR L858R, 1.9 nM; in experiment [1] it was 220 nM; in experiment [2], 470 nM.

Consider `CN1CCN(c2ccc(-c3ccc4c(c3)C(=O)N(C(C(=O)Nc3nccs3)c3cccc(F)c3)CO4)cc2)CC1` (stereo not drawn) [Compound 002, 2-(3-Fluorophenyl)-2-(6-(4-(4-methylpiperazin-1-yl)phenyl)-4-oxo-2H-benzo[e][1,3]oxazin-3 (4H)-yl)-N-(thiazol-2-yl)acetamide], for which the IC50 at EGFR L858R/T790M came to 4 nM; at EGFR L858R it was 23 nM.

As to `CN1CCC(c2ccc(-c3ccc4c(c3)C(=O)N(C(C(=O)Nc3nccs3)c3ccccc3)CO4)cc2)CC1` (stereo not drawn) [Compound 003, 2-(6-(4-(1-Methylpiperidin-4-yl)phenyl)-4-oxo-2H-benzo[e][1,3]oxazin-3(4H)-yl)-2-phenyl-N-(thiazol-2-yl)acetamide], the 50% inhibitory concentration (IC50) was 0.8 nM at EGFR L858R/T790M, 23 nM on EGFR L858R, 460 nM in experiment [1] and 1250 nM in experiment [2].

With `CN1CCC(c2ccc(-c3ccc4c(c3F)C(=O)N(C(C(=O)Nc3nccs3)c3ccccc3)CO4)cc2)CC1` (stereo not drawn) [Compound 005, 2-(5-Fluoro-6-(4-(1-methylpiperidin-4-yl)phenyl)-4-oxo-2H-benzo[e][1,3]oxazin-3(4H)-yl)-2-phenyl-N-(thiazol-2-yl)acetamide], the IC50 turned out to be 1 nM at EGFR L858R/T790M, 3.7 nM at EGFR L858R, 460 nM in experiment [1] and 1040 nM in experiment [2].
